{"source": "ChEMBL document CHEMBL6103573", "about": "“Discovery of novel thienopyridine indole derivatives as inhibitors of tubulin polymerization targeting the colchicine-binding site with potent anticancer activities” (Eur J Med Chem, 2025)", "key": {"[1]": {"system": "HGC-27", "assay": "Antiproliferative activity against human HGC-27 cells assessed as cell viability at 0.5 to 2 nmol/L incubated for 48 hrs by MTT assay (reference value: 86 %)", "format": "functional", "conditions": "dose 0.5-2 nmol/L, at 0.5 to 2 nM"}, "[2]": {"molecular_target": "T1, Tubulin (Homo sapiens) (UniProt P68371+Q9H4B7+P0DPH7+P68366+Q13509+Q71U36+P04350+Q3ZCM7+P07437+P68363+Q9BQE3+Q6PEY2+Q13885+Q9BVA1+Q9BUF5)", "assay": "Disruption of microtubule network in human MGC-803 cells assessed as appearance of multinucleation at 0.25 to 2.0 nmol/L incubated for 24 hrs by DAPI staining based fluorescence microscopic analysis", "format": "cell-based", "conditions": "dose 0.25-2 nmol/L"}, "[3]": {"system": "MGC-803", "assay": "Inhibition of colony formation in human MGC-803 cells incubated for 7 days by crystal violet staining based colony formation assay", "format": "functional, cell-based", "conditions": "dose 0.1-0.5 nmol/L, time 7.0 day"}, "[4]": {"system": "SGC-7901", "assay": "Antiproliferative activity against human SGC-7901 cells assessed as inhibition of cell proliferation incubated for 48 hrs by MTT assay", "format": "functional, cell-based", "conditions": "SGC-7901, 48 h"}, "[5]": {"system": "HGC-27", "assay": "Induction of cell cycle arrest in human HGC-27 cells assessed as downregulation of Cdc25c level measured after 48 hrs by Western blot analysis", "format": "functional, cell-based", "conditions": "dose 0.25-2 nmol/L"}, "[6]": {"assay": "Toxicity in female BALB/c-nu nude mouse xenografted with human MGC-803 cells assessed as change in liver morphology at 5 mg/kg, po administrated every other day for 11 times and measured after 21 days by hematoxylin and eosin staining based analysis", "format": "organism-based", "conditions": "in vivo, 504 h, time 21 day"}, "[7]": {"system": "HGC-27", "assay": "Antiproliferative activity against human HGC-27 cells by MTT assay", "format": "functional, cell-based", "conditions": "dose 0.25-2 nmol/L"}, "[8]": {"system": "MGC-803", "assay": "Induction of apoptosis in human MGC-803 cells assessed as appearance of bright cells at 0.25 to 2.0 nmol/L incubated for 48 hrs by bright field microscopic analysis", "format": "functional, cell-based", "conditions": "dose 0.25-2 nmol/L"}, "[9]": {"system": "HGC-27", "assay": "Antiproliferative activity against human HGC-27 cells assessed as reduction in cell viability at 0.25 to 2.0 nmol/L by MTT assay", "format": "functional, cell-based", "conditions": "dose 0.25-2 nmol/L, time 6-48 hrs"}, "[10]": {"system": "HGC-27", "assay": "Anti-migratory activity against human HGC-27 cells assessed as decrease in cell migration at 1 nmol/L measured after 24 hrs by wound healing assay relative to control", "format": "functional", "parameters": "scale not given: the % may be the effect or the level left"}, "[11]": {"assay": "Toxicity in female BALB/c-nu nude mouse xenografted with human MGC-803 cells assessed as change in spleen morphology at 5 mg/kg, po administrated every other day for 11 times and measured after 21 days by hematoxylin and eosin staining based analysis", "format": "organism-based", "conditions": "in vivo, 504 h, time 21 day"}, "[12]": {"molecular_target": "Tubulin beta (Homo sapiens) (UniProt P68371+Q9H4B7+Q13509+P04350+Q3ZCM7+P07437+Q13885+Q9BVA1+Q9BUF5+A6NNZ2)", "assay": "Competitive binding affinity to beta-tubulin colchicine binding site in human MGC-803 cells assessed as reduction in EBI-beat tubulin adduct to beta-tubulin ratio preincubated for 2 hrs followed by EBI addition and measured after 2 hrs by Western blotting analysis", "format": "cell-based", "conditions": "dose 0.1-1 µmol/L, time 4.0 hrs"}, "[13]": {"system": "MGC-803", "assay": "Induction of apoptosis in human MGC-803 cells assessed as nuclei shrinkage at 0.25 to 2.0 nmol/L incubated for 48 hrs by DAPI staining based analysis", "format": "functional, cell-based", "conditions": "dose 0.25-2 nmol/L"}, "[14]": {"system": "MGC-803", "assay": "Induction of apoptosis in human MGC-803 cells assessed as early apoptotic cells at 2.0 nmol/L incubated for 48 hrs by Annexin V-FITC/propidium iodide staining based flow cytometry analysis (reference value: 0.83 %)", "format": "functional"}, "[15]": {"molecular_target": "T1, Tubulin (Homo sapiens)", "assay": "Disruption of microtubule network in human HGC-27 cells assessed as appearance of multinucleation at 0.25 to 2.0 nmol/L incubated for 24 hrs by DAPI staining based fluorescence microscopic analysis", "format": "cell-based", "conditions": "dose 0.25-2 nmol/L"}, "[16]": {"system": "MGC-803", "assay": "Induction of cell cycle arrest at G2 phase in human MGC-803 cells assessed as downregulation of Cyclin B1 level at 0.25 to 2.0 nmol/L measured after 48 hrs by Western blot analysis", "format": "functional, cell-based", "conditions": "dose 0.25-2 nmol/L"}, "[17]": {"system": "MGC-803", "assay": "Induction of apoptosis in human MGC-803 cells assessed as early apoptotic cells at 1.5 nmol/L incubated for 48 hrs by Annexin V-FITC/propidium iodide staining based flow cytometry analysis (reference value: 0.83 %)", "format": "functional"}, "[18]": {"system": "HUVEC", "assay": "Anti-migratory activity against HUVEC cells assessed as wound healing rate at 1 nmol/L measured after 24 hrs by wound healing assay (reference value: 97 %)", "format": "functional, Homo sapiens"}, "[19]": {"system": "MGC-803", "assay": "Antitumor activity against human MGC-803 cells xenografted in female BALB/c-nu nude mouse assessed as increase in apoptotic cells at 5 mg/kg, po administrated every other day for 11 times and measured after 21 days by TUNEL staining based assay", "format": "functional, organism-based", "conditions": "time 21.0 day"}, "[20]": {"molecular_target": "T1, Tubulin (Homo sapiens)", "assay": "Disruption of microtubule network in human MGC-803 cells assessed as irregular cellular morphology at 0.25 to 2.0 nmol/L incubated for 24 hrs by DAPI staining based fluorescence microscopic analysis", "format": "cell-based", "conditions": "dose 0.25-2 nmol/L"}, "[21]": {"system": "HGC-27", "assay": "Induction of apoptosis in human HGC-27 cells assessed as late apoptotic cells at 1.5 nmol/L incubated for 48 hrs by Annexin V-FITC/propidium iodide staining based flow cytometry analysis (reference value: 3.70 %)", "format": "functional"}, "[22]": {"system": "HGC-27", "assay": "Induction of cell cycle arrest in human HGC-27 cells assessed as accumulation of cells at G2/M phase at 2 nmol/L incubated for 24 hrs by RNase A/propidium iodide staining based flow cytometric analysis relative to control", "format": "functional"}, "[23]": {"system": "MGC-803", "assay": "Anti-migratory activity against human MGC-803 cells assessed as reduction in wound healing area measured after 24 hrs by wound healing assay", "format": "functional, cell-based", "conditions": "dose 0.5-1 nmol/L"}, "[24]": {"system": "MGC-803", "assay": "Induction of cell cycle arrest in human MGC-803 cells assessed as downregulation of Wee1 level measured after 48 hrs by Western blot analysis", "format": "functional, cell-based", "conditions": "dose 0.25-2 nmol/L"}, "[25]": {"system": "HGC-27", "assay": "Induction of cell cycle arrest in human HGC-27 cells assessed as accumulation of cells at G2/M phase incubated for 24 hrs by RNase A/propidium iodide staining based flow cytometric analysis", "format": "functional", "conditions": "dose 0.25-2 nmol/L"}, "[26]": {"system": "MGC-803", "assay": "Induction of apoptosis in human MGC-803 cells assessed as increase in total apoptotic rate at 2 nmol/L incubated for 48 hrs by Annexin V-FITC/propidium iodide staining based flow cytometry analysis relative to control", "format": "functional"}, "[27]": {"system": "HGC-27", "assay": "Induction of apoptosis in human HGC-27 cells assessed as increase in total apoptotic rate at 2 nmol/L incubated for 48 hrs by Annexin V-FITC/propidium iodide staining based flow cytometry analysis relative to control", "format": "functional"}, "[28]": {"system": "MGC-803", "assay": "Induction of apoptosis in human MGC-803 cells assessed as early apoptotic cells at 1.0 nmol/L incubated for 48 hrs by Annexin V-FITC/propidium iodide staining based flow cytometry analysis (reference value: 0.83 %)", "format": "functional"}, "[29]": {"system": "HGC-27", "assay": "Antiproliferative activity against human HGC-27 cells assessed as reduction in cell viability incubated for 48 hrs by MTT assay", "format": "functional, cell-based", "conditions": "dose 0.25-10 nmol/L"}, "[30]": {"system": "MGC-803", "assay": "Induction of apoptosis in human MGC-803 cells assessed as increase in cleaved Caspase-7 expression at 0.25 to 2.0 nmol/L incubated for 48 hrs by Western blotting analysis", "format": "functional, cell-based", "conditions": "dose 0.25-2 nmol/L"}, "[31]": {"system": "HGC-27", "assay": "Induction of apoptosis in human HGC-27 cells assessed as increase in nuclei brightness at 0.25 to 2.0 nmol/L incubated for 48 hrs by DAPI staining based analysis", "format": "functional, cell-based", "conditions": "dose 0.25-2 nmol/L"}, "[32]": {"system": "HGC-27", "assay": "Induction of apoptosis in human HGC-27 cells assessed as appearance of bright cells at 0.25 to 2.0 nmol/L incubated for 48 hrs by bright field microscopic analysis", "format": "functional, cell-based", "conditions": "dose 0.25-2 nmol/L"}}, "note": "The source made the active and inactive calls. No cut-off for these calls is given here."}
{"smiles": "CN(c1ccc2c(ccn2C)c1)c1nc(N2CCCC2)nc2sccc12", "values": [{"measurement": "Activity", "setting": "[1]", "result": 38, "unit": "%"}, {"measurement": "Activity", "setting": "[2]", "result": "Active"}, {"measurement": "inhibition", "setting": "[3]", "result": "Dose-dependent-effect"}, {"measurement": "IC50", "setting": "[4]", "result": 2.01, "unit": "nM"}, {"measurement": "Activity", "setting": "[5]", "result": "Dose-dependent-effect"}, {"measurement": "Activity", "setting": "[6]", "result": "Non-toxic"}, {"measurement": "Activity", "setting": "[7]", "result": "Dose-dependent-effect"}, {"measurement": "Activity", "setting": "[8]", "result": "Active"}, {"measurement": "Activity", "setting": "[9]", "result": "Time-dependent-effect"}, {"measurement": "Activity", "setting": "[10]", "result": 17, "unit": "%"}, {"measurement": "Activity", "setting": "[11]", "result": "Non-toxic"}, {"measurement": "Activity", "setting": "[12]", "result": "Dose-dependent-effect"}, {"measurement": "Activity", "setting": "[13]", "result": "Active"}, {"measurement": "Activity", "setting": "[14]", "result": 54.93, "unit": "%"}, {"measurement": "Activity", "setting": "[15]", "result": "Active"}, {"measurement": "Activity", "setting": "[16]", "result": "Active"}, {"measurement": "Activity", "setting": "[17]", "result": 43.09, "unit": "%"}, {"measurement": "Activity", "setting": "[18]", "result": 58, "unit": "%"}, {"measurement": "Activity", "setting": "[19]", "result": "Active"}, {"measurement": "Activity", "setting": "[20]", "result": "Active"}, {"measurement": "Activity", "setting": "[21]", "result": 5.22, "unit": "%"}, {"measurement": "Activity", "setting": "[22]", "result": 43.9, "unit": "%"}, {"measurement": "Activity", "setting": "[23]", "result": "Dose-dependent-effect"}, {"measurement": "Activity", "setting": "[24]", "result": "Dose-dependent-effect"}, {"measurement": "Activity", "setting": "[25]", "result": "Dose-dependent-effect"}, {"measurement": "Activity", "setting": "[26]", "result": 60, "unit": "%"}, {"measurement": "Activity", "setting": "[27]", "result": 14, "unit": "%"}, {"measurement": "Activity", "setting": "[28]", "result": 16.83, "unit": "%"}, {"measurement": "Activity", "setting": "[29]", "result": "Dose-dependent-effect"}, {"measurement": "Activity", "setting": "[30]", "result": "Active"}, {"measurement": "Activity", "setting": "[31]", "result": "Active"}, {"measurement": "Activity", "setting": "[32]", "result": "Active"}]}
